Where a name gives a salt, the structure may show the parent alone.
Tested on: MHC class II expression in B220 positive B cells of mouse spleen cells
Test: In vitro MHC class II expression inhibitory effect using mouse spleen cells (LPS-stimulated B cells, flow cytometry)
Assay type: cell-based, C57BL/6 mice
Details: B-cell, C57BL/6 spleen cells, LPS 2 μg/mL, 48 hours, B220 positive B cells, read-out: IC50 value of MHC class II expression inhibition (Data 2)
Description: Test Example 2 Evaluation of In Vitro MHC Class II Expression Inhibitory Effect Using Mouse Spleen Cells (Cell Evaluation System)
In antigen-presenting cells, the inhibition of cathepsin S inhibits the expression of MHC class II molecules. […] For an increased expression of MI-IC class II in B cells, the inhibitory effect of the compound represented by formula (I) was examined.
First, spleen cells collected from C57BL/6 mice were seeded in a 96-well plate so as to be a 1×10^5 cells/well, then, 5-fold dilution of 10 mM DMSO solution of the test compound was serially performed with RPMI 1640 medium (including 10% fetal bovine serum (FCS), 5×10^−5 M 2-mercaptoethanol, 50 IU/mL penicillin and 50 μg/mL streptomycin) nine times such that the final concentration becomes 0.026 nM to 10 μM, and the resultant products were added thereto (the final DMSO concentration was 0.1%). At the same time, LPS (Sigma L4005) was added to the wells such that the final concentration becomes 2 μg/mL, and culture was performed at 37° C. for 48 hours in 5% CO2. After culturing, the cells were stained at 4° C. for 20 minutes with PE-labeled streptavidin (BD BIOSCIENCE 554061) and biotin-labeled YAe antibody (EBIOSCIENCE 13-5741-85) together with FITC-labeled anti-mouse B220 antibody (BD BIOSCIENCE 553088), and an expression level (fluorescence intensity of YAe-biotin/streptavidin-PE) of MHC class II to which Ea peptide in B220 positive B cells was bonded was measured using a flow cytometry system (Guava EasyCyte Plus System, manufactured by Millipore Corporation). A value at the time of unstimulation of LPS in which the test compound was not added and a value at the time of stimulation of LPS in which the test compound was not added were set to 100% inhibition and 0% inhibition, respectively, then, an inhibition rate at each concentration was determined, and IC50 values were calculated by a linear regression method. In the Table, Ex represents Example compound No., and Data 2 represents an IC50 value (nM).

| SMILES | IC50 [nM] |
| --- | --- |
| Cn1cnc2c(-c3ccc(OCCC4CCNCC4)c(C(F)(F)F)c3)nc(C#N)nc21 [Example 19] | 0.7 |
| CN(C)C(=O)CN1CCC(CCOc2ccc(-c3nc(C#N)nc4c3ccn4CCO)cc2C(F)(F)F)CC1 [Example 21] | 1 |
| CCN1CCC(CCOc2ccc(-c3nc(C#N)nc4c3ncn4C)cc2C(F)(F)F)CC1 [Example 26] | 0.61 |
| CCN1CCC(CCOc2ncc(-c3nc(C#N)nc4c3ccn4C)cc2C(F)(F)F)CC1 [Example 27] | 1.3 |
| CN1CCC[C@H]1C(=O)N1CCC(CCOc2ncc(-c3nc(C#N)nc4c3ncn4C)cc2C(F)(F)F)CC1 [Example 40] | 0.85 |
| CN1CCC[C@H]1C(=O)N1CCC(CCOc2ncc(-c3nc(C#N)nc4c3ccn4C)cc2C(F)(F)F)CC1 [Example 41] | 1.1 |
| CCN1CCC(CCOc2ncc(-c3nc(C#N)nc4c3ccn4CC3CCOC3)cc2C(F)(F)F)CC1 (stereo not drawn) [Example 52] | 1.8 |
| CCN1CCC(CCOc2ccc(-c3nc(C#N)nc4c3ccn4CC3CCOC3)cc2C(F)(F)F)CC1 (stereo not drawn) [Example 54] | 0.94 |

More lines, now with the values ahead:

| IC50 [nM] | SMILES |
| --- | --- |
| 3 | N#Cc1nc(-c2ccc(OCCC3CCNCC3)c(C(F)(F)F)c2)c2ccn(CC3CCOC3)c2n1 (stereo not drawn) [Example 23] |
| 0.8 | Cn1cnc2c(-c3ccc(OCCC4CCN(CCO)CC4)c(C(F)(F)F)c3)nc(C#N)nc21 [Example 24] |
| 0.66 | CN1CCC[C@H]1C(=O)N1CCC(CCOc2ccc(-c3nc(C#N)nc4c3ncn4C)cc2C(F)(F)F)CC1 [Example 29] |
| 0.97 | CN1CCC[C@H]1C(=O)N1CCC(CCOc2ccc(-c3nc(C#N)nc4c3ccn4CC3CCOC3)cc2C(F)(F)F)CC1 (stereo partly drawn) [Example 30] |
| 2 | N#Cc1nc(-c2ccc(OCCC3CCNCC3)c(C(F)(F)F)c2)c2ccn(CC3CCCO3)c2n1 (stereo not drawn) [Example 58] |

Biological target: human cathepsin S (Homo sapiens (Human), UniProt P25774)
Test: In vitro human cathepsin S inhibitory activity (VVR-AMC fluorescence)
Assay type: biochemical
Details: human cathepsin S enzyme, substrate VVR-AMC 40 μM, pH 4.5, 37° C.; read-out: IC50 value of the human cathepsin S inhibitory activity (Data 1)
Description: Test Example 1 Measurement of a In Vitro Human Cathepsin S Inhibitory Activity
5 μL of a human cathepsin S enzyme (R&D1183-CY-010) was added to a 96-well plate so as to be 20 ng/well. […] A reaction rate at the time of not adding an enzyme in which the test compound was not added and a reaction rate at the time of adding an enzyme in which the test compound was not added were set to 100% inhibition and 0% inhibition, respectively, then, an inhibition rate at each concentration was determined, and IC50 values were calculated by a linear regression method. In the Table, Ex represents Example compound No., and Data 1 represents an IC50 value (nM) of the human cathepsin S inhibitory activity.

human cathepsin S, sequence (P25774 115-331): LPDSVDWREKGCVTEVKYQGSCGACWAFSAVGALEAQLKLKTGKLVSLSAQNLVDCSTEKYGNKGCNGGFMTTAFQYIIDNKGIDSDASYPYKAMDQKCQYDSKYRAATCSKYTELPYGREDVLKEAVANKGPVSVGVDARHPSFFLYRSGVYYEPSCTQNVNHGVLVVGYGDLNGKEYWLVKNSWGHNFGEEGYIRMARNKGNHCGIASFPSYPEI

| SMILES | IC50 [nM] |
| --- | --- |
| CCOc1ccc(-c2nc(C#N)nc3c2ccn3CC(=O)N2CCN(C)CC2)cc1C(F)(F)F [Example 5, 4-[4-ethoxy-3-(trifluoromethyl)phenyl]-7-[2-(4-methylpiperazin-1-yl)-2-oxoethyl]-7H-pyrrolo[2,3-d]pyrimidine-2-carbonitrile] | 4.2 |
| Cc1nc2c(-c3ccc(OCCC4CCNCC4)c(C(F)(F)F)c3)nc(C#N)nc2n1C [Example 10, 8,9-dimethyl-6-{4-[2-(piperidin-4-yl)ethoxy]-3-(trifluoromethyl)phenyl}-9H-purine-2-carbonitrile monohydrochloride] | 2.7 |
| CCN1CCC(CCOc2ccc(-c3nc(C#N)nc4c3nc(C)n4C)cc2C(F)(F)F)CC1 [Example 11, 6-{4-[2-(1-ethylpiperidin-4-yl)ethoxy]-3-(trifluoromethyl)phenyl}-8,9-dimethyl-9H-purine-2-carbonitrile] | 1.9 |
| CCN1CCCC(CCOc2ncc(-c3nc(C#N)nc4c3ccn4C)cc2C(F)(F)F)C1 (stereo not drawn) [Example 12, 4-{6-[2-(1-ethylpiperidin-3-yl)ethoxy]-5-(trifluoromethyl)pyridin-3-yl}-7-methyl-7H-pyrrolo[2,3-d]pyrimidine-2-carbonitrile monohydrochloride] | 2.7 |
| Cn1ccc2c(-c3ccc(OCCC4CCN(C5CC5)CC4)c(C(F)(F)F)c3)nc(C#N)nc21 [Example 14, 4-{4-[2-(1-cyclopropylpiperidin-4-yl)ethoxy]-3-(trifluoromethyl)phenyl}-7-methyl-7H-pyrrolo[2,3-d]pyrimidine-2-carbonitrile] | 2.3 |
| CN1CCC(CCOc2ncc(-c3nc(C#N)nc4c3ncn4C)cc2C(F)(F)F)CC1 [Example 136, 9-methyl-6-{6-[2-(1-methylpiperidin-4-yl)ethoxy]-5-(trifluoromethyl)pyridin-3-yl}-9H-purine-2-carbonitrile] | 1.5 |
| CC(C)CN1CCC(CCOc2ncc(-c3nc(C#N)nc4c3ncn4C)cc2C(F)(F)F)CC1 [Example 144] | 2.8 |
| Cn1cnc2c(-c3cnc(OCCC4CCN(C(CF)CF)CC4)c(C(F)(F)F)c3)nc(C#N)nc21 [Example 145] | 1 |
| Cn1ccc2c(-c3cnc(OCCO[C@H]4CCNC4)c(C(F)(F)F)c3)nc(C#N)nc21 [Example 148] | 2.8 |
| Cn1ccc2c(-c3cnc(OCC4CCN(C(=O)[C@@H]5CCCN5)CC4)c(C(F)(F)F)c3)nc(C#N)nc21 [Example 154] | 2.4 |
| Cn1ccc2c(-c3cnc(OCC4CCN(CC(C)(C)O)CC4)c(C(F)(F)F)c3)nc(C#N)nc21 [Example 155] | 1.5 |
| CC(C)N1CCC[C@H]1C(=O)N1CCC(COc2ncc(-c3nc(C#N)nc4c3ccn4C)cc2C(F)(F)F)CC1 [Example 156] | 2.4 |
| CN1CCC[C@H]1C(=O)N1CC[C@@H](OCCOc2ncc(-c3nc(C#N)nc4c3ccn4C)cc2C(F)(F)F)C1 [Example 157] | 2.1 |
| Cn1ccc2c(-c3cnc(OCC4CCN(C(=O)C5CCN(C6CCOCC6)CC5)CC4)c(C(F)(F)F)c3)nc(C#N)nc21 [Example 160] | 2.4 |

The next lines start with the values.

| IC50 [nM] | SMILES |
| --- | --- |
| 6.2 | CN(C)C(=O)N1CCC(CCOc2ccc(-c3nc(C#N)nc4c3ncn4C)cc2C(F)(F)F)CC1 [Example 7, 4-{2-[4-(2-cyano-9-methyl-9H-purin-6-yl)-2-(trifluoromethyl)phenoxy]ethyl}-N,N-dimethylpiperidine-1-carboxamide] |
| 1.6 | CN1CCN(C(=O)Cn2ccc3c(-c4ccc(OCCC5CCOCC5)c(C(F)(F)F)c4)nc(C#N)nc32)CC1 [Example 8, 7-[2-(4-methylpiperazin-1-yl)-2-oxoethyl]-4-{4-[2-(tetrahydro-2H-pyran-4-yl)ethoxy]-3-(trifluoromethyl)phenyl}-7H-pyrrolo[2,3-d]pyrimidine-2-carbonitrile monohydrochloride] |
| 2.7 | CCN1CCC(CCOc2ccc(-c3nc(C#N)nc4c3ccn4CCOC)cc2C(F)(F)F)CC1 [Example 13, 4-{4-[2-(1-ethylpiperidin-4-yl)ethoxy]-3-(trifluoromethyl)phenyl}-7-(2-methoxyethyl)-7H-pyrrolo[2,3-d]pyrimidine-2-carbonitrile monohydrochloride] |
| 4.7 | CN(C)C(=O)CN1CCC(CCOc2ccc(-c3nc(C#N)nc4c3ccn4CC3CCCO3)cc2C(F)(F)F)CC1 (stereo not drawn) [Example 16, 2-[4-(2-{4-[2-cyano-7-(tetrahydrofuran-2-ylmethyl)-7H-pyrrolo[2,3-d]pyrimidin-4-yl]-2-(trifluoromethyl)phenoxy}ethyl)piperidin-1-yl]-N,N-dimethylacetamide monohydrochloride] |
| 4.5 | Cn1ccc2c(-c3ccc(OCCC4C5CCC4CNC5)c(C(F)(F)F)c3)nc(C#N)nc21 (stereo not drawn) [Example 38] |
| 2.7 | Cn1cnc2c(-c3cnc(OCCC4CCN(C(=O)[C@@H]5CCCN5)CC4)c(C(F)(F)F)c3)nc(C#N)nc21 [Example 138] |
| 2.1 | CC(C)N1CCC(CCOc2ncc(-c3nc(C#N)nc4c3ncn4C)cc2C(F)(F)F)CC1 [Example 139] |
| 1.5 | Cn1cnc2c(-c3cnc(OCCC4CCN5CCCC5C4)c(C(F)(F)F)c3)nc(C#N)nc21 (stereo not drawn) [Example 142] |
| 1.5 | CN1CCC[C@@H]1C(=O)N1CC[C@H](OCCOc2ncc(-c3nc(C#N)nc4c3ccn4C)cc2C(F)(F)F)C1 [Example 143, 7-methyl-4-[6-(2-{[(3S)-1-(1-methyl-D-prolyl)pyrrolidin-3-yl]oxy}ethoxy)-5-(trifluoromethyl)pyridin-3-yl]-7H-pyrrolo[2,3-d]pyrimidine-2-carbonitrile monofumarate] |
| 3.2 | Cn1cnc2c(-c3cnc(OCCC4CCN(C(C)(C)C)CC4)c(C(F)(F)F)c3)nc(C#N)nc21 [Example 146] |
| 2.4 | Cn1ccc2c(-c3cnc(OCCOC4CCNCC4)c(C(F)(F)F)c3)nc(C#N)nc21 [Example 147] |
| 2.7 | CN1CCC[C@H]1C(=O)N1CCC(OCCOc2ncc(-c3nc(C#N)nc4c3ccn4C)cc2C(F)(F)F)CC1 [Example 149] |
| 1.7 | CN1CCC[C@H]1C(=O)N1CC[C@H](OCCOc2ncc(-c3nc(C#N)nc4c3ccn4C)cc2C(F)(F)F)C1 [Example 150] |
| 1.6 | Cn1ccc2c(-c3cnc(OCC4CCNCC4)c(C(F)(F)F)c3)nc(C#N)nc21 [Example 153] |
| 2.7 | Cn1ccc2c(-c3cnc(OCC4CCN(C(=O)C5CCNCC5)CC4)c(C(F)(F)F)c3)nc(C#N)nc21 [Example 159] |
